Biological target: Secreted effector protein (Yersinia pestis, UniProt O68720)
Assay: Inhibition of Yersinia pestis YopH after 15 mins by pNPP hydrolysis assay

Sequence of Secreted effector protein (O68720 whole entry): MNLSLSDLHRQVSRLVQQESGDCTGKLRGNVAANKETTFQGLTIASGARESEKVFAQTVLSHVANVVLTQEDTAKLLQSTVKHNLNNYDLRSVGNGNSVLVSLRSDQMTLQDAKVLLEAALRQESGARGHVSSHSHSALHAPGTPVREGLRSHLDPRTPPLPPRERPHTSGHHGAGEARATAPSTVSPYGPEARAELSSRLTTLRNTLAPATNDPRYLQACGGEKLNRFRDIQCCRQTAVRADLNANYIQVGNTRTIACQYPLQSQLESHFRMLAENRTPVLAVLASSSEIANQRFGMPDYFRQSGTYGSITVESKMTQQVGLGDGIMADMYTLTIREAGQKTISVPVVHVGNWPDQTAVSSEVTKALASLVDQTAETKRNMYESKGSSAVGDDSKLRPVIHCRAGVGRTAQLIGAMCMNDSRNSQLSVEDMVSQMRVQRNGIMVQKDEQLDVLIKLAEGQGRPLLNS

SMILES: O=C(O)c1cc(/C=N/OCCCCCCCCCCO/N=C/c2ccc(OCc3ccccc3)cc2)ccc1O
- IC50: 2.4 µM
